Measurements from ChEMBL document CHEMBL3875185, “Structure-anticonvulsant activity studies in the group of (E)-N-cinnamoyl aminoalkanols derivatives monosubstituted in phenyl ring with 4-Cl, 4-CH3 or 2-CH3” (Bioorg Med Chem, 2017).
The source made the active and inactive calls. No cut-off for these calls is given here.

Key:
Mus musculus [1] = test: Anticonvulsant activity in maximal electroshock induced seizure mouse model assessed as suppression in hindlimb tonic extension at 100 mg/kg, ip measured at 0.5 hrs post dose; format: functional, organism-based
Rattus norvegicus [2] = test: Anticonvulsant activity in po dosed pentylenetetrazole induced seizure Sprague-Dawley rat model assessed as no observable episode of clonic convulsion of at least 5 secs by measuring time to peak effect; format: functional
Rattus norvegicus [3] = test: Neurotoxicity in Sprague-Dawley rat assessed as behavioral change at 30 mg/kg, ip measured at 1 hr post dose; format: toxicity, organism-based; settings: in vivo
Rattus norvegicus [4] = test: Neurotoxicity in Sprague-Dawley rat assessed as behavioral change at 30 mg/kg, ip measured at […] post dose; format: toxicity, organism-based; settings: in vivo
Rattus norvegicus [5] = test: Anticonvulsant activity in maximal electroshock induced seizure Sprague-Dawley rat model assessed as suppression in hindlimb tonic extension at 30 mg/kg, ip measured at 1 hr post dose; format: functional, organism-based
Rattus norvegicus [6] = test: Anticonvulsant activity in po dosed pentylenetetrazole induced seizure Sprague-Dawley rat model assessed as no observable episode of clonic convulsion of at least 5 secs; format: functional
[7] = target: Type-2 angiotensin II receptor (Homo sapiens) (UniProt P50052); test: Displacement of [125I]CGP 42112A from human recombinant AT2 receptor expressed in HEK293 cells at 100 uM measured after 4 hrs by scintillation counting method relative to control; format: cell-based
Chain of Type-2 angiotensin II receptor (Homo sapiens) (P50052 whole entry): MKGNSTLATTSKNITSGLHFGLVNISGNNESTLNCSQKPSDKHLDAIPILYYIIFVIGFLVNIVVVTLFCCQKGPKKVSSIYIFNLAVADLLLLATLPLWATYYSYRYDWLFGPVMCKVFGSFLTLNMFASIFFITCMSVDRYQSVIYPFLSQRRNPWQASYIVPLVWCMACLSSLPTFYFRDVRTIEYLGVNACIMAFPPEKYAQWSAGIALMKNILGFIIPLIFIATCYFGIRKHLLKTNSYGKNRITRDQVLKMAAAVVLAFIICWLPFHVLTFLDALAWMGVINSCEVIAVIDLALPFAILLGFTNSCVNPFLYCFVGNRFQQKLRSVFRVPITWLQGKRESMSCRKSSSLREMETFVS

[8] = Protection index, ratio of TD50 for neurotoxicity in po dosed Sprague-Dawley rat model to ED50 for po dosed pentylenetetrazole induced seizure Sprague-Dawley rat model; format: toxicity, organism-based; settings: in vivo, read-out: Ratio TD50/ED50
Rattus norvegicus [9] = test: Neurotoxicity in Sprague-Dawley rat assessed as behavioral change at 30 mg/kg, ip measured at 0.5 hrs post dose; format: toxicity, organism-based; settings: in vivo
Mus musculus [10] = test: Neurotoxicity in po dosed mouse assessed as induction of motor impairment by measuring time to peak effect by rotarod method; format: toxicity, organism-based; settings: in vivo
Rattus norvegicus [11] = test: Neurotoxicity in Sprague-Dawley rat assessed as behavioral change at 30 mg/kg, ip measured at 2 hrs post dose; format: toxicity, organism-based; settings: in vivo
Rattus norvegicus [12] = test: Neurotoxicity in Sprague-Dawley rat assessed as behavioral change at 30 mg/kg, ip measured at 4 hrs post dose; format: toxicity, organism-based; settings: in vivo
Mus musculus [13] = test: Anticonvulsant activity in pentylenetetrazole induced seizure mouse model assessed as no observable episode of clonic convulsion of at least 5 secs at 100 mg/kg, ip measured at 0.5 hrs post dose; format: functional, organism-based
[14] = target: Muscarinic acetylcholine receptor M1 (Homo sapiens) (UniProt P11229); test: Displacement of [3H]pirenzepine from human recombinant M1 receptor expressed in CHO cells at 100 uM measured after 60 mins by scintillation counting method relative to control; format: cell-based
Chain of Muscarinic acetylcholine receptor M1 (Homo sapiens) (P11229 whole entry): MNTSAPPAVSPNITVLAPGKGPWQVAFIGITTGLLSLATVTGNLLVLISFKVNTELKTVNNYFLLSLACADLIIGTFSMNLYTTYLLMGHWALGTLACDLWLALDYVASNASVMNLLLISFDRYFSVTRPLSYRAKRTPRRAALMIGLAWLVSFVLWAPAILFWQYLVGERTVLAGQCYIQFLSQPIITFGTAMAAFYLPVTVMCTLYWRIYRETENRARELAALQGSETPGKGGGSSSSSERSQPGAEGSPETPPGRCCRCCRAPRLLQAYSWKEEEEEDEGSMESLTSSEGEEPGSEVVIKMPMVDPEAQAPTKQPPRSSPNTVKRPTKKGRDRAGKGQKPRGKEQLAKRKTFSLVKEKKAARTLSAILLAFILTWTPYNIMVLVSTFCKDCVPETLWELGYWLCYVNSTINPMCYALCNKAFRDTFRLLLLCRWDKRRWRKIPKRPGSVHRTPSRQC

[15] = target: Neuropeptide Y receptor type 1 (Homo sapiens) (UniProt P25929); test: Displacement of [125I]peptide YY from Y1 in human SK-N-MC cells receptor at 100 uM measured after 120 mins by scintillation counting method relative to control; format: cell-based
Chain of Neuropeptide Y receptor type 1 (Homo sapiens) (P25929 whole entry): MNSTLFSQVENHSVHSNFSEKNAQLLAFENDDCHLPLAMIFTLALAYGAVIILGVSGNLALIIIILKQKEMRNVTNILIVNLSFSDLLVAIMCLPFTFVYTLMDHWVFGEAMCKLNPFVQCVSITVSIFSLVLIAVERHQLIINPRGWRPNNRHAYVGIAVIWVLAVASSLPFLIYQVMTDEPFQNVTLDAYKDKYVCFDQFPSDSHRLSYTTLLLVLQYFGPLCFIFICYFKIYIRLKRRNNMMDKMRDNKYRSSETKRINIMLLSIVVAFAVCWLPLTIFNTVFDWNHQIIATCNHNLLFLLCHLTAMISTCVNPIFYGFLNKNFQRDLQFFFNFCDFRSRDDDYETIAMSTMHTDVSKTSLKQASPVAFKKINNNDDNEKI

Rattus norvegicus [16] = test: Anticonvulsant activity in maximal electroshock induced seizure Sprague-Dawley rat model assessed as suppression in hindlimb tonic extension at 30 mg/kg, po measured at 0.5 hrs post dose; format: functional, organism-based
[17] = target: Muscarinic acetylcholine receptor M2 (Homo sapiens) (UniProt P08172); test: Displacement of [3H]AF-DX384 from human recombinant M2 receptor expressed in CHO cells at 100 uM measured after 60 mins by scintillation counting method relative to control; format: cell-based
Chain of Muscarinic acetylcholine receptor M2 (Homo sapiens) (P08172 whole entry): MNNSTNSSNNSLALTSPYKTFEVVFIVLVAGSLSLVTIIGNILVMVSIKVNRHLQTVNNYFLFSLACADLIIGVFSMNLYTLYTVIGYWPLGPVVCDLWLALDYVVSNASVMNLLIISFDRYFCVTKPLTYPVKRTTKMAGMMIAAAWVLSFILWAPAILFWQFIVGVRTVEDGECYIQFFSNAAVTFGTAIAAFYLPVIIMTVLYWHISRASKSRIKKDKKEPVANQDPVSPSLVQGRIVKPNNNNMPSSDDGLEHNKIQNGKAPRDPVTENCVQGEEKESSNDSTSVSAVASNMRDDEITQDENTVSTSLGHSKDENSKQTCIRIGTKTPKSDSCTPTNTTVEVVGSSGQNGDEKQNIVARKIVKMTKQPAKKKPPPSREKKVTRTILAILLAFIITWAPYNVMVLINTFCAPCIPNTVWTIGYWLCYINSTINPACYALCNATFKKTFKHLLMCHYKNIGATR

[18] = target: Galanin receptor type 2 (Homo sapiens) (UniProt O43603); test: Displacement of [125I]galanin from human recombinant GAL2 receptor expressed in CHO cells at 100 uM measured after 120 mins by scintillation counting method relative to control; format: cell-based
Chain of Galanin receptor type 2 (Homo sapiens) (O43603 whole entry): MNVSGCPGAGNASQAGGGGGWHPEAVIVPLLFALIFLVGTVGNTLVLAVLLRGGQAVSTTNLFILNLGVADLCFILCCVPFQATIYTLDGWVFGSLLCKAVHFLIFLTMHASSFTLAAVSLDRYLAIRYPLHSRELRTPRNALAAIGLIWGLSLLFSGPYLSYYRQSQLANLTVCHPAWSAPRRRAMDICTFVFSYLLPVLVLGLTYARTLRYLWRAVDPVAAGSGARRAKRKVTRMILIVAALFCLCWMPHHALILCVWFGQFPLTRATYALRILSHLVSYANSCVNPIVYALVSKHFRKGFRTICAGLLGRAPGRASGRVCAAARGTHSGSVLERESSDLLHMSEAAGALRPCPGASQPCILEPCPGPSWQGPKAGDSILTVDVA

Mus musculus [19] = test: Neurotoxicity in mouse assessed as induction of motor impairment at 100 mg/kg, ip measured at 0.5 hrs post dose by rotarod method; format: toxicity, organism-based; settings: in vivo
Mus musculus [20] = test: Anticonvulsant activity in 6-Hz induced seizure mouse model assessed as restoration of normal activity within 10 secs from stimulation at 100 mg/kg, ip at 44 mA measured at […] post dose; format: functional, organism-based
[21] = target: 5-hydroxytryptamine receptor 3A (Homo sapiens) (UniProt P46098); test: Displacement of [3H]BRL 43694 from human recombinant 5HT3 receptor expressed in CHO cells at 100 uM measured after 120 mins by scintillation counting method relative to control; format: cell-based
Chain of 5-hydroxytryptamine receptor 3A (Homo sapiens) (P46098 whole entry): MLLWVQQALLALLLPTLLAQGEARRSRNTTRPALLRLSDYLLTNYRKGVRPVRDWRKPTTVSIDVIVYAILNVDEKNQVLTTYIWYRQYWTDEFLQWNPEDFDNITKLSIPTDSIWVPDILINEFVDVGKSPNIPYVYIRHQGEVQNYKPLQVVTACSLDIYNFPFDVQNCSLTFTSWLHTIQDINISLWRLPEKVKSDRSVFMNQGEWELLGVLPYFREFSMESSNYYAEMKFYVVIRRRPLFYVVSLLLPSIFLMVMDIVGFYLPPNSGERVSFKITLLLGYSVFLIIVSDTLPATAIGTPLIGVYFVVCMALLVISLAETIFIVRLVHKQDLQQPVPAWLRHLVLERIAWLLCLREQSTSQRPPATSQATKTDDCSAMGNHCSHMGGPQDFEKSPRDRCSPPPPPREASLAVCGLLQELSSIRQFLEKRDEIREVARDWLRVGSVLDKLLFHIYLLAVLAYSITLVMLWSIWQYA

Rattus norvegicus [22] = test: Anticonvulsant activity in maximal electroshock induced seizure Sprague-Dawley rat model assessed as suppression in hindlimb tonic extension at 30 mg/kg, ip measured at […] post dose; format: functional, organism-based

Cc1ccccc1/C=C/C(=O)N[C@@H](C)CO
Activity (Mus musculus [1]): Active | Time (Rattus norvegicus [2]): 1 h | Activity (Rattus norvegicus [3]): Non-Toxic | Activity (Rattus norvegicus [4]): Non-Toxic | Activity (Rattus norvegicus [5]): Active | ED50 (Rattus norvegicus [6]): 69.6 mg/kg | inhibition [7]: 2.6% | selectivity ratio [8]: > 7.18 | Activity (Rattus norvegicus [9]): Non-Toxic | Time (Mus musculus [10]): 0.25 h | Activity (Rattus norvegicus [11]): Non-Toxic | Activity (Rattus norvegicus [12]): Non-Toxic

CC(O)CNC(=O)/C=C/c1ccc(Cl)cc1 (configuration not stated)
Activity (Mus musculus [13]): Active | inhibition [14]: -9.8% | inhibition [15]: -5.8% | Activity (Rattus norvegicus [16]): Active | inhibition [17]: -2.8%

CCC(CO)NC(=O)/C=C/c1ccc(Cl)cc1 (configuration not stated)
inhibition [18]: -7.3% | Activity (Mus musculus [19]): Non-Toxic | Activity (Mus musculus [20]): Active | inhibition [21]: -1.6% | Activity (Rattus norvegicus [22]): Active
